Reference: the supplement of paper PMC11919725

What was measured:
Jurkat [1] = test: confluency relative to DMSO, 18 h (ratio); higher = more viable
Outline: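 Jurkat or primary CD4+/CD8+ T cells (naive, or activated 48 h with CD3/CD28 Dynabeads) were treated 18 h with compound at 1 nM–10 µM (log10 steps) at 37 °C, 5% CO2. Then 100 µl of suspension went into 96-well plates with IncuCyte Cytotox Dye and alamarBlue. Confluency came from IncuCyte phase-contrast imaging (×10, five images per well, hourly over 3 h) using the Basic Analyzer. Values are normalised to mean DMSO controls.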

Jurkat [2] = test: metabolic activity relative to DMSO, 18 h (ratio); higher = more viable
Outline: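 Metabolic activity was expressed relative to the mean of vehicle control wells. Jurkat cells or primary CD4+/CD8+ T cells, either naive or activated for 48 h with CD3/CD28 Dynabeads, were exposed to compound from 1 nM to 10 µM in log10 steps for 18 h at 37 °C, 5% CO2. Aliquots of 100 µl of suspension were moved to 96-well plates containing alamarBlue (10% v/v final), and fluorescence was read after 3.5 h on a FluoStar Omega at excitation 544 nm and emission 584 nm.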

Jurkat [3] = test: cytotoxicity relative to DMSO, 18 h (ratio); higher = less cell death (drugs called cytotoxic fall below 1)
Outline: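 The assay used Jurkat cells or naive or CD3/CD28 Dynabead-activated (48 h) primary CD4+/CD8+ T cells, incubated with compound at 1 nM–10 µM in log10 steps for 18 h at 37 °C, 5% CO2. Cytotoxicity was assessed with IncuCyte Cytotox Dye and IncuCyte fluorescence imaging, corrected for confluency and scaled to mean control signals.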

Compound	confluency (Jurkat [1]; 1 nM)	confluency (Jurkat [1]; 10 nM)	confluency (Jurkat [1]; 100 nM)	confluency (Jurkat [1]; 1000 nM)	confluency (Jurkat [1]; 10000 nM)	metabolic activity (Jurkat [2]; 1 nM)	metabolic activity (Jurkat [2]; 10 nM)	metabolic activity (Jurkat [2]; 100 nM)	metabolic activity (Jurkat [2]; 1000 nM)	metabolic activity (Jurkat [2]; 10000 nM)	cytotoxicity (Jurkat [3]; 1 nM)	cytotoxicity (Jurkat [3]; 10 nM)	cytotoxicity (Jurkat [3]; 100 nM)	cytotoxicity (Jurkat [3]; 1000 nM)	cytotoxicity (Jurkat [3]; 10000 nM)
CNCc1ccc(-c2[nH]c3cc(F)cc4c3c2CCNC4=O)cc1 [Rucaparib]	1.06	1.03	1.04	1.07	0.931	0.926	0.952	0.981	0.996	0.973	1.06	1	1.04	1.07	0.899
CC(C)(C)c1cnc(CSc2cnc(NC(=O)C3CCNCC3)s2)o1 [SNS-032]	1.13	1.09	1.08	1.13	1.17	0.778	0.953	0.979	0.192	0.167	1.06	1.06	1.06	0.66	0.657
O=C(Nc1cccc(Cl)c1)Nc1ncc(CCNc2ncnc3ccsc23)s1 [SNS-314]	0.951	0.963	0.974	0.907	0.78	0.955	0.945	0.979	0.909	0.797	0.951	0.912	0.92	0.832	0.733
Cc1nc(-c2cccnc2)sc1C(=O)Nc1ccccc1-c1cn2c(CN3CCOCC3)csc2n1 [SRT2104]	1.06	1.02	1.05	1.04	0.971	1.03	1.01	1.03	1.03	0.982	1.13	1.06	1.13	1.11	1.05
CCC(CO)Nc1nc(NCc2ccccc2)c2ncn(C(C)C)c2n1 (stereo not given) [Seliciclib]	1.03	0.968	0.924	0.977	0.943	0.994	0.987	0.945	0.962	1.03	1.02	0.922	0.883	0.948	0.957
NC(=O)C1CCCc2c1[nH]c1ccc(Cl)cc21 (stereo not given) [Selisistat]	0.962	0.984	0.973	0.992	0.992	1.06	1.02	0.995	1.09	1.05	0.974	0.979	0.932	1.09	0.974
Cn1cnc2c(F)c(Nc3ccc(Br)cc3Cl)c(C(=O)NOCCO)cc21 [Selumetinib]	0.985	0.965	0.988	0.983	0.974	1.05	1.04	1.03	1.03	1.07	1.01	0.984	1.06	1.02	0.959
c1ccc2c(CCNc3ccc(Nc4ccncc4)cc3)c[nH]c2c1 [Serdemetan]	1.02	1.02	1.06	1.04	0.841	1.04	0.963	0.905	0.863	0.816	1.08	1.1	1.21	1.06	0.829
CNC1CC2OC(C)(C1OC)n1c3ccccc3c3c4c(c5c6ccccc6n2c5c31)C(=O)NC4 (stereo not given) [Staurosporine]	0.829	0.908	0.897	0.964	0.876	0.916	1.06	0.979	1.02	0.995	0.826	0.955	0.959	1.04	0.913
CCN(CC)CCNC(=O)c1c(C)[nH]c(C=C2C(=O)Nc3ccc(F)cc32)c1C [Sunitinib]	0.994	0.89	0.969	0.836	0.635	1.07	0.92	0.991	0.874	0.795	0.992	0.874	1.01	0.752	0.546
Cn1cc(-c2nc(NC3CCCCC3N)c(F)c3c2C(=O)NC3)cn1 (stereo not given) [TAK-659]	0.984	1.04	0.979	0.946	0.896	1.07	1.12	0.932	0.867	0.955	0.994	1.11	0.902	0.949	0.883
CC(C)(CNC(=O)c1cccc(-c2noc(C(F)(F)F)n2)c1)c1coc(-c2ccccc2)n1 [TMP195]	1.02	0.934	1.08	1.04	1.02	1.02	0.877	0.921	0.94	1.02	0.995	0.915	1.12	1.06	1.06
O=C(NCC1(c2nc(-c3ccccc3)cs2)CCOCC1)c1cccc(-c2noc(C(F)(F)F)n2)c1 [TMP269]	0.997	1.08	0.985	0.978	0.947	0.923	0.987	1.04	1.06	1.03	0.968	1.06	0.951	0.93	0.891
CC(=O)Nc1ccc(C(=O)Nc2ccccc2N)cc1 [Tacedinaline]	0.975	1.05	1.01	0.986	0.994	0.978	0.926	0.943	0.899	0.757	0.902	0.979	0.958	0.905	0.942
Cn1ncnc1C1c2n[nH]c(=O)c3cc(F)cc(c23)NC1c1ccc(F)cc1 (stereo not given) [Talazoparib]	0.992	1	0.967	0.939	0.897	1.02	0.958	1.05	1.07	1.03	0.986	1.01	0.96	0.97	0.848
C=CCNC1=C2CC(C)CC(OC)C(O)C(C)C=C(C)C(OC(N)=O)C(OC)C=CC=C(C)C(=O)NC(=CC1=O)C2=O (stereo not given) [Tanespimycin]	0.985	0.872	0.982	0.7	0.734	0.935	0.939	0.999	0.835	0.795	0.913	0.813	0.913	0.585	0.628
COc1cccc2c1c(O)c(C(=O)N(C)c1ccc(C(F)(F)F)cc1)c(=O)n2C [Tasquinimod]	0.994	0.999	0.975	1.02	1	1.06	0.914	0.979	1.17	1.12	1	0.998	0.97	1.2	1.15
CCN(c1cc(-c2ccc(CN3CCOCC3)cc2)cc(C(=O)NCc2c(C)cc(C)[nH]c2=O)c1C)C1CCOCC1 [Tazemetostat]	0.999	0.961	0.898	0.926	0.97	0.926	0.932	0.939	1.12	1.24	0.997	0.928	0.843	0.912	1.05
COC1CC2CCC(C)C(O)(O2)C(=O)C(=O)N2CCCCC2C(=O)OC(C(C)CC2CCC(OC(=O)C(C)(CO)CO)C(OC)C2)CC(=O)C(C)C=C(C)C(O)C(OC)C(=O)C(C)CC(C)C=CC=CC=C1C (stereo not given) [Temsirolimus]	0.971	0.876	0.899	1.02	1.05	0.977	0.927	0.903	0.93	0.762	0.937	0.781	0.787	0.958	0.925
O=C1CCC(N2C(=O)c3ccccc3C2=O)C(=O)N1 (stereo not given) [Thalidomide]	0.954	0.93	1	0.99	0.975	1.17	1.26	1.27	1.13	0.925	0.981	1	1.1	0.991	0.855
CC1CCN(C(=O)CC#N)CC1N(C)c1ncnc2[nH]ccc12 (stereo not given) [Tofacitinib]	0.957	0.941	0.983	0.961	0.844	1.23	1.27	1.02	0.928	0.908	1.01	1.06	0.922	1.02	0.851
CC(=O)Nc1cccc(-n2c(=O)n(C3CC3)c(=O)c3c(Nc4ccc(I)cc4F)n(C)c(=O)c(C)c32)c1 [Trametinib]	1.01	1.03	1.05	1.03	1	1.12	1.08	1.15	1.1	1.02	1.14	1.12	1.26	1.12	1.02
NC1CC1c1ccccc1 (stereo not given) [Tranylcypromine]	0.972	0.963	0.998	1.02	1	1.02	0.916	1.14	1.08	0.962	0.98	0.941	1.15	1.08	0.956
CC(C=CC(=O)NO)=CC(C)C(=O)c1ccc(N(C)C)cc1 (stereo not given) [Trichostatin-A]	0.999	1.03	1.03	0.99	0.96	1.21	1.17	1.17	0.97	0.904	1.27	1.25	1.22	1.06	0.98
